Assay results reported in patent US20160331717A1, “CABAZITAXEL AND ITS USE FOR TREATING CANCER” (AVENTIS PHARMA S.A., priority 2015, published 2016).
Where two headings read alike, the source gives them in different places.

How the values were obtained:
[1] = Pharmacokinetics of cabazitaxel in POP6792 (plasma, LC-MS/MS, Cycle 1); format: in vivo, human
Procedure: Total cabazitaxel concentrations in plasma were determined using a validated liquid chromatography with tandem mass spectrometry method (LC-MS/MS) with a lower limit of quantification (LLOQ) of 1 ng/mL.

[2] = test system: advanced solid tumor patients with varying degrees of hepatic impairment; settings: for maximum tolerated dose (MTD): 1-hour IV infusion every 3 weeks; for death related to study drug: one patient
Procedure: • The primary endpoint was the occurrence of DLTs during Cycle 1. • The secondary endpoints were: • Treatment-emergent adverse events (TEAEs); • Laboratory abnormalities; and, • Pharmacokinetic parameters (Cmax, Ceoi, tmax, tlast, AUClast, AUCO-24, AUCO-72, t1/2z, AUC, CL and Vss). • The effect of the degree of hepatic impairment on cabazitaxel PK parameters was evaluated according to a linear mixed effects model (Log [parameter]=Cohort+Error) with a fixed term for Cohort, fit by estimated generalized least squares (GLS) using SAS PROC MIXED. Estimate and 90% confidence interval (CI) for the geometric mean ratio of each cohort versus Cohort 1 and of Cohorts 3 and 4 versus Cohort 2 were provided for CL, CL/BSA, and exposure parameters (Cmax, AUC, AUClast, AUCO-24 and AUCO-72) normalized to actual cabazitaxel dose in mg/m^2.
• The study was designed as an open-label, dose-escalation, multi-center study of cabazitaxel administered as a 1-hour intravenous (IV) infusion every 3 weeks in cancer patients with varying degrees of hepatic impairment. Patients were enrolled in 4 cohorts based on hepatic function at baseline graded by total bilirubin and aspartate aminotransferase (AST): • Cohort 1: normal hepatic function (total bilirubin supper limit of normal [ULN]; aspartate aminotransferase [AST]≦ULN), • Cohort 2: mild hepatic impairment (total bilirubin >1 to ≦1.5×ULN or AST>1.5×ULN), • Cohort 3: moderate hepatic impairment (total bilirubin >1.5× to ≦3.0×ULN; AST=any), • Cohort 4: severe hepatic impairment (total bilirubin >3.0×-10×ULN; AST=any). • All liver function tests must be completed within 48 hours prior to start of treatment, and reviewed by the investigator or their designee before treatment administration.
Cabazitaxel is administered on Day 1 of each 3-week cycle. Patients received cabazitaxel administered by IV infusion over 1 hour at the dose specified for each cohort. The actual amount of cabazitaxel administered was adjusted at each cycle based on body surface area (BSA) to a maximum BSA of 2.1 m^2 (i.e., patients with a BSA over 2.1 m2 will receive the same amount of cabazitaxel as those with a BSA of 2.1 m).
For Cohorts 2, 3 and 4, dose-escalation was based on dose-limiting toxicities (DLTs) during Cycle 1; real time PK information was used along with safety information. The maximum administered dose (MAD) was to be reached at the dose level when at least 2 patients develop a DLT during Cycle 1. The MTD was defined as the highest dose at which no more than 0 of the first 3 patients, or 1 of 6 patients, experience a DLT during Cycle 1, to a maximum dose of 25 mg/m2. The MTD was one dose level below the MAD.
To be considered a DLT, the clinical adverse event (AE) or laboratory abnormality should be drug-related as assessed by the investigator.
Liver DLTs in patients with hepatic dysfunction (Cohorts 2, 3 and 4) were defined as an increase in total and direct bilirubin and/or transaminase levels to 3 times the baseline value.

[3] = POH0124; CV=38.8%, n=170; cited from earlier work
[4] = Cohort 2, mild hepatic impairment
[5] = Cohort 3 at the MTD, 4/7 patients

## CO[C@H]1C(=O)[C@]2(C)[C@@H](OC)C[C@H]3OC[C@@]3(OC(C)=O)[C@H]2[C@H](OC(=O)c2ccccc2)[C@]2(O)C[C@H](OC(=O)[C@H](O)[C@@H](NC(=O)OC(C)(C)C)c3ccccc3)C(C)=C1C2(C)C [cabazitaxel, 4α-acetoxy-2α-benzoyloxy-5β,20-epoxy-1-hydroxy-7, 101-dimethoxy-9-oxo-11-taxen-13α-yl (2R,3S)-3-tert-butoxycarbonyl-amino-2-hydroxy-3-phenylpropionate]
[1]; Cohort 1, normal hepatic function, 90% CI: 8.6-20.8
  CL/BSA estimate: 13.4 L/h/m2
[1]; Cohort 2, mild hepatic impairment, 90% CI: 17.6-31.4
  CL/BSA estimate: 23.5 L/h/m2
[1]; Cohort 2 versus Cohort 1, 75% increase, 90% CI: 1.04-2.96
  CL/BSA geometric mean ratio: 1.75
[1]; Cohort 3/10 mg/m^2 (aberrant PK behavior, excluded from statistical analysis)
  mean CL/BSA: 517 L/h/m2
[1]; Cohort 3 versus Cohort 2, after exclusion of patients with erratic PK profile, 6% decrease, 90% CI: 0.64-1.38
  CL/BSA geometric mean ratio, sensitivity analysis: 0.94
[1]; Cohort 3 versus Cohort 2, 14% decrease, 90% CI: 0.50-1.46
  AUClast/dose geometric mean ratio: 0.86
[1]; Cohort 3 versus Cohort 2, 19% increase, 90% CI: 0.74-1.91
  CL/BSA geometric mean ratio: 1.19
[1]; Cohort 4 versus Cohort 2, after exclusion of patients with erratic PK profile, 39% decrease, 90% CI: 0.36-1.05
  CL/BSA geometric mean ratio, sensitivity analysis: 0.61
[1]; Cohort 4 versus Cohort 2, 17% increase, 90% CI: 0.63-2.14
  AUClast/dose geometric mean ratio: 1.17
[1]; Cohort 4 versus Cohort 2, 23% decrease, 90% CI: 0.39-1.53
  CL/BSA geometric mean ratio: 0.77
[1]; higher
  mean CL/BSA, Cohort 3/10 mg/m^2 versus other Cohort 3 patients: approximately 20 fold
[1]; mild or moderate hepatic impairment
  effect of hepatic impairment on cabazitaxel clearance: no evidence that mild or moderate hepatic impairment results in a substantial decline in cabazitaxel clearance
[1]; moderate hepatic impairment
  CL/BSA estimate: 27.9 L/h/m2
[1]; other Cohort 3 patients, 15 and 20 mg/m2
  mean CL/BSA: 30.5 L/h/m2
[1]; severe hepatic impairment
  CL/BSA estimate: 18.1 L/h/m2
[2]; [4]
  maximum administered dose (MAD): 25 mg/m2
  maximum tolerated dose (MTD): 20 mg/m^2
[2]; Cohort 2/20 mg/m^2
  death related to study drug: died due to Gr 4 Candida sepsis related to study drug
[2]; Cohort 3, moderate hepatic impairment
  maximum tolerated dose (MTD): 15 mg/m^2
[2]; Cohort 3 at the MTD, 1/7 patients
  study drug-related febrile neutropenia, patients: 14.3%
[2]; Cohort 3 at the MTD, 3/7 patients
  study drug-related TEAE diarrhea, patients: 42.9%
[2]; [5]
  Gr≧3 on-treatment neutrophil count decreased, patients: 57.1%
  Gr≧3 on-treatment white blood cell count decreased, patients: 57.1%
[2]; Cohort 4/20 mg/m^2
  death related to study drug: died due to a combination of shock, acute renal failure, tumor lysis syndrome (all related to study drug)
[2]; all cohorts, 21/43 patients
  death due to disease progression, patients: 48.8%
[2]; all cohorts, 23 of 43 patients
  patients who died by the cut-off date: 53.5%
[2]; human, in vivo
  study drug-related TEAE diarrhea, patients: 41.7%
  study drug-related TEAE fatigue, patients: 83.3%
  study drug-related serious TEAE febrile neutropenia, patients: 25.0%
  study drug-related serious TEAE neutropenia (Gr≧3), patients: 33.3%
[2]; human, in vivo, 3 weeks
  maximum administered dose (MAD): 20 mg/m2
[2]; in vivo
  febrile neutropenia: No patient experienced febrile neutropenia
[2]; patients with mild or moderate hepatic impairment
  safety profile at the MTD: generally similar to that observed at 25 mg/m^2 in patients with normal hepatic function
[3]
  typical cabazitaxel clearance (CL/BSA) by population PK analysis: 26.4 L/h/m2
